Experimental data reported in ChEMBL document CHEMBL1201862, “PubChem BioAssay data set” (2004).
Activity calls are given as the source filed them.

Assays:
[1] = target: T1, Small ubiquitin-related modifier 1 (Homo sapiens, UniProt P63165); assay: inhibitors of SUMO1 peptide binding, dose response, biochemical, fluorescence polarization, uHTS hits (AID 624382); format: functional; conditions: read-out: IC50_Mean
[2] = target: T1, Small ubiquitin-related modifier 1; assay: inhibitors of SUMO1 partner interactions, dose response, biochemical, FRET (AID 624383); format: functional; conditions: read-out: IC50_Mean
[3] = tested on: BJ; assay: cytotoxicity toward BJ-TERT fibroblasts, dose response, cell-based, RAS-independent, luminescence (AID 1933); format: functional; conditions: Homo sapiens
[4] = tested on: BJ; assay: cells; format: functional, cell-based; conditions: Homo sapiens
[5] = tested on: BJ; assay: cytotoxicity toward BJ-TERT-LT-ST fibroblasts, dose response, cell-based, RAS-independent, luminescence (AID 1935); format: functional; conditions: Homo sapiens;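 further: BJ fibroblasts immortalized with TERT plus LT and ST oncogenes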
[6] = cytotoxicity toward DRD oncogenic fibroblasts, dose response, cell-based, non-viral oncogenic, luminescence (AID 1934); format: functional; conditions: Homo sapiens
[7] = Luminescence Cell-Based Dose Retest to Confirm Inhibitors of Cancer Stem Cells. [Related pubchem assays (depositor defined):AID2717, AID2721]; format: functional; conditions: Homo sapiens
[8] = target: Nonstructural protein 1 (Influenza A virus, UniProt Q194T2); format: functional, Influenza A virus (A/California/07/2009(H1N1))
Nonstructural protein 1, sequence (Q194T2 whole entry): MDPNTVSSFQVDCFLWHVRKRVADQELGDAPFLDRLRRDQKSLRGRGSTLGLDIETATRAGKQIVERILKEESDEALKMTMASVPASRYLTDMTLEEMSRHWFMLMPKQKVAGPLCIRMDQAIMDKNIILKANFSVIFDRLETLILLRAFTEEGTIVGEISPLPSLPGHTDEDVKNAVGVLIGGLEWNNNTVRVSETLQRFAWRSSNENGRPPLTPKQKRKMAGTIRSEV

[9] = target: T2, Heat shock factor protein 1 (Mus musculus, UniProt P38532); assay: HSF1 potentiators in luciferase reporter cells, confirmation, cell-based, NIH3T3, luminescence, dose retest (AID 435004); format: functional;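 further: stress induced by proteasome inhibitor MG132 added 30 min after compound; luciferase reporter driven by HSF1 response element in NIH3T3 cells; actives raise luminescence as potentiators of the MG132 stress response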
T2 sequence (P38532 whole entry): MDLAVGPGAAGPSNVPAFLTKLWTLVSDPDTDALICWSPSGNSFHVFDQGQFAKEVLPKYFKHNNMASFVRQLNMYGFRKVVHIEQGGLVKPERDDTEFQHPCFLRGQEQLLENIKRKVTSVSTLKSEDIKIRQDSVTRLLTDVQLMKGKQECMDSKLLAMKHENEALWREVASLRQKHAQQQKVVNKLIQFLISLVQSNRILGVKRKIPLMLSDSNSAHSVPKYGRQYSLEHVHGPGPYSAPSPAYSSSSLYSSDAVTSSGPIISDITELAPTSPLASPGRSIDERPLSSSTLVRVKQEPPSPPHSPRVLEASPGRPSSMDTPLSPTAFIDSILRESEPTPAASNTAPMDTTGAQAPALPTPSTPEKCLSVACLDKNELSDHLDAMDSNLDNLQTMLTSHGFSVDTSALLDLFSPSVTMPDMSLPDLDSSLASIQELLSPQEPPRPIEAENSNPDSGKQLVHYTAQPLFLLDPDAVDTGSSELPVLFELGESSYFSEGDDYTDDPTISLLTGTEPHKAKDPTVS

[10] = tested on: Vero; assay: Vero cell cytotoxicity, cytotoxicity control for flavivirus capping enzyme inhibitors (AID 588742); format: functional; conditions: Chlorocebus sabaeus
[11] = inhibitors of intracellular T. cruzi replication, confirmation, NIH3T3 host cells, beta-gal luminescence (AID 2044); format: functional, cell-based;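 further: intracellular parasites grown in NIH/3T3 mouse fibroblasts as host cells; luminescent beta-galactosidase reporter signal from transgenic T. cruzi replicating inside host cells; inhibitors lower the luminescence signal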
[12] = cytotoxicity toward NIH3T3 fibroblasts, dose response, counter-screen, cell-based, ATP luminescence, mouse fibroblasts (AID 2010); format: functional;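 further: cells exposed to compound for about 90 hours before reading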
[13] = cells
[14] = tested on: Streptococcus sp. 'group A'; assay: growth inhibition of control SK(-) GAS strain, dose response, counter-screen for streptokinase expression inhibitor project, luminescence, kanamycin, BacTiterGlo, confirmation (AID 1900); format: functional, organism-based
[15] = target: T3, Streptokinase A (Streptococcus pyogenes serotype M1, UniProt P10520); assay: S. pyogenes streptokinase expression inhibitors, potency, dose response, plasminogen activation absorbance, OD405 (AID 1914); format: functional, Streptococcus pyogenes M1 GAS;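 further: secreted streptokinase activity via plasminogen activation per viability signal from cell pellet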
T3 sequence (P10520 whole entry): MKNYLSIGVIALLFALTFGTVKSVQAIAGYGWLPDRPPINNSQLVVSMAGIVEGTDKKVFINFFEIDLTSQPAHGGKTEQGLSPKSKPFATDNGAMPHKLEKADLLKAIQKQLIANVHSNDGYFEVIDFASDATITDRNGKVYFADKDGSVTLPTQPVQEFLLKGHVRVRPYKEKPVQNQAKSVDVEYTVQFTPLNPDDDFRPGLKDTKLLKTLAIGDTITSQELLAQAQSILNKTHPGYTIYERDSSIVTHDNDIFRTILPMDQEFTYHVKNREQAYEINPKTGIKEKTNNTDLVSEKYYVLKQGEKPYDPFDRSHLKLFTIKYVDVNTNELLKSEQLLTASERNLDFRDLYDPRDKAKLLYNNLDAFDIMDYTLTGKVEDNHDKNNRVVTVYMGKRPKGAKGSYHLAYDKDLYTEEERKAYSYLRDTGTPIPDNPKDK

[16] = tested on: Streptococcus; assay: Group A Streptococcus viability loss, dose response, counter-screen for streptokinase expression inhibitor project, luminescence, BacTiterGlo (AID 1915); format: functional, organism-based;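 further: potency for reduction of bacterial viability or growth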
[17] = cytotoxicity in HEK-293T cells, dose response, cytotoxicity control for TCR NF-kB inhibitor project, luminescence, T-cell screen hits (AID 489026); format: functional, cell-based;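 further: cells exposed to compound about 14 hours before the viability readout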
[18] = target: T4, Sentrin-specific protease 8 (Homo sapiens, UniProt Q96LD8); format: functional
T4 sequence (Q96LD8 whole entry): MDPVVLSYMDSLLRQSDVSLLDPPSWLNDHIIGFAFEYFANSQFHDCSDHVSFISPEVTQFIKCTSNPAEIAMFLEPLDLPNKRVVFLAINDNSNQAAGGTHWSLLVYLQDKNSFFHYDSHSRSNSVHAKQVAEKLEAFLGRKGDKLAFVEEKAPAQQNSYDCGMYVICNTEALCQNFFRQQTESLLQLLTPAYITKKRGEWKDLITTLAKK

[19] = target: T4, Sentrin-specific protease 8; format: functional; remark: listed apart in the source
[20] = target: SWI/SNF-related matrix-associated actin-dependent regulator of chromatin subfamily A member 2 (Homo sapiens, UniProt P51531); assay: Luminescence-based cell-based high throughput dose response assay to identify activators of the function of SWI/SNF related, matrix associated, actin dependent regulator of chromatin, subfamily a, member 2 (SMARCA2, BRM).; format: functional
SWI/SNF-related matrix-associated actin-dependent regulator of chromatin subfamily A member 2, sequence (P51531 whole entry): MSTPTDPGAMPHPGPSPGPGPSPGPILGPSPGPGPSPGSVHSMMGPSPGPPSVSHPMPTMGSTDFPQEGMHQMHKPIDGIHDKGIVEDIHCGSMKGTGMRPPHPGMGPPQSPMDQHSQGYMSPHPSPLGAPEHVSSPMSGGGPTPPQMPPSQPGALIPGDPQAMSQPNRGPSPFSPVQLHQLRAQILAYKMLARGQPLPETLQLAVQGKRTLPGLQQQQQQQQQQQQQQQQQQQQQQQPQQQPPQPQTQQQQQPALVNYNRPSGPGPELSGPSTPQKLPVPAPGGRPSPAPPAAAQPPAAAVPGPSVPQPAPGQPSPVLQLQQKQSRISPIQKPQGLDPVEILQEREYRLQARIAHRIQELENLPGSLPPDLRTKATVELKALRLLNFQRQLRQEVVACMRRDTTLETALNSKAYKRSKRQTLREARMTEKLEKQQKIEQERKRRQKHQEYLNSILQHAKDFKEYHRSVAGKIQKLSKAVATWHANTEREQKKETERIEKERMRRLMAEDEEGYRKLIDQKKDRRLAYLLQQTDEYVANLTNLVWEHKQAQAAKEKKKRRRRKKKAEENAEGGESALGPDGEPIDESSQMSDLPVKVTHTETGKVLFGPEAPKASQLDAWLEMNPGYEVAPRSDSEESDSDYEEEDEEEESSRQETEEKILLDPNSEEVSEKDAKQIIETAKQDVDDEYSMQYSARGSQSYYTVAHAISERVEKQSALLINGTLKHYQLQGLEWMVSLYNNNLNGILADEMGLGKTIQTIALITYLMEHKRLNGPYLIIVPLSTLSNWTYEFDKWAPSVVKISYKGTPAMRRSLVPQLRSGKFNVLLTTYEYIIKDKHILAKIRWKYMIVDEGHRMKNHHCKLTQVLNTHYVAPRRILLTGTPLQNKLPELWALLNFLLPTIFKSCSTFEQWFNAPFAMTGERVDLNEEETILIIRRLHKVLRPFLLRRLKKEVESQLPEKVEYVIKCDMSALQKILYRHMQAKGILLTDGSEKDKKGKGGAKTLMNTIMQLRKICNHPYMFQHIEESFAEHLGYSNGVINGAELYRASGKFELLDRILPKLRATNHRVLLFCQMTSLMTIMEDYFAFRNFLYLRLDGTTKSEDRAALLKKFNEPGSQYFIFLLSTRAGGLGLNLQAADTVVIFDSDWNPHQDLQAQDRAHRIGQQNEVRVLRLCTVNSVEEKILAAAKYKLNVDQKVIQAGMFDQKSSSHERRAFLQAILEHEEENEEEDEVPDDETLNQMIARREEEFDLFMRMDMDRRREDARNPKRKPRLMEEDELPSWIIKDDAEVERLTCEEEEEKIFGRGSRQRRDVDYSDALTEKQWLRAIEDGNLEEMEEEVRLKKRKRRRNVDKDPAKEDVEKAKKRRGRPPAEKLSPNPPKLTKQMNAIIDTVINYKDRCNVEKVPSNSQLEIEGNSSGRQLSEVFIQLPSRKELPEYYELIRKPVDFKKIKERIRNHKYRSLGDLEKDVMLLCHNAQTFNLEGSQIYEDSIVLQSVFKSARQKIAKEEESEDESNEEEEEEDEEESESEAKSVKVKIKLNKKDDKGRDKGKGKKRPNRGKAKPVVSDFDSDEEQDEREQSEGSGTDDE

[21] = Counterscreen for activators of the function of SWI/SNF related, matrix associated, actin dependent regulator of chromatin, subfamily a, member 2 (SMARCA2, BRM): Luminescence-based cell-based high throughput dose response assay to identify non-selective compounds using the VP16 reporter assay.; format: functional
[22] = target: NAD-dependent protein deacylase sirtuin-5, mitochondrial (Homo sapiens, UniProt Q9NXA8); assay: SIRT5 desuccinylase inhibitors, dose response, biochemical, fluorescence imaging, cherry-pick, set 5 (AID 720591);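 further: desuccinylation of succinyl peptide AMC substrate read as fluorescence after trypsin release; potency of inhibitors that lower fluorescence and may act on trypsin instead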
NAD-dependent protein deacylase sirtuin-5, mitochondrial, sequence (Q9NXA8 whole entry, the tested form may be a part): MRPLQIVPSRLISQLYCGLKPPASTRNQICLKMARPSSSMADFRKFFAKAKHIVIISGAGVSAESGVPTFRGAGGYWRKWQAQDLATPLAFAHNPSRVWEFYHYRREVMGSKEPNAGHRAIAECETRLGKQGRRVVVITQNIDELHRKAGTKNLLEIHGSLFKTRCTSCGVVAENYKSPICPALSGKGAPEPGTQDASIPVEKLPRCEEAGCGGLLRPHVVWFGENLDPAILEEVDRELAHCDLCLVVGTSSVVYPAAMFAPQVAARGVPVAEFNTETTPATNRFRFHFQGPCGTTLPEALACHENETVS

[23] = target: Fatty acid synthase (Homo sapiens, UniProt P49327); assay: FAS thioesterase domain inhibitors, dose response, biochemical, kinetic fluorescence intensity (AID 624326); format: functional;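 further: rate of fluorescence rise from hydrolysis of a fluorogenic O-methyl fluorescein ester substrate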
Fatty acid synthase, sequence (P49327 whole entry, the tested form may be a part): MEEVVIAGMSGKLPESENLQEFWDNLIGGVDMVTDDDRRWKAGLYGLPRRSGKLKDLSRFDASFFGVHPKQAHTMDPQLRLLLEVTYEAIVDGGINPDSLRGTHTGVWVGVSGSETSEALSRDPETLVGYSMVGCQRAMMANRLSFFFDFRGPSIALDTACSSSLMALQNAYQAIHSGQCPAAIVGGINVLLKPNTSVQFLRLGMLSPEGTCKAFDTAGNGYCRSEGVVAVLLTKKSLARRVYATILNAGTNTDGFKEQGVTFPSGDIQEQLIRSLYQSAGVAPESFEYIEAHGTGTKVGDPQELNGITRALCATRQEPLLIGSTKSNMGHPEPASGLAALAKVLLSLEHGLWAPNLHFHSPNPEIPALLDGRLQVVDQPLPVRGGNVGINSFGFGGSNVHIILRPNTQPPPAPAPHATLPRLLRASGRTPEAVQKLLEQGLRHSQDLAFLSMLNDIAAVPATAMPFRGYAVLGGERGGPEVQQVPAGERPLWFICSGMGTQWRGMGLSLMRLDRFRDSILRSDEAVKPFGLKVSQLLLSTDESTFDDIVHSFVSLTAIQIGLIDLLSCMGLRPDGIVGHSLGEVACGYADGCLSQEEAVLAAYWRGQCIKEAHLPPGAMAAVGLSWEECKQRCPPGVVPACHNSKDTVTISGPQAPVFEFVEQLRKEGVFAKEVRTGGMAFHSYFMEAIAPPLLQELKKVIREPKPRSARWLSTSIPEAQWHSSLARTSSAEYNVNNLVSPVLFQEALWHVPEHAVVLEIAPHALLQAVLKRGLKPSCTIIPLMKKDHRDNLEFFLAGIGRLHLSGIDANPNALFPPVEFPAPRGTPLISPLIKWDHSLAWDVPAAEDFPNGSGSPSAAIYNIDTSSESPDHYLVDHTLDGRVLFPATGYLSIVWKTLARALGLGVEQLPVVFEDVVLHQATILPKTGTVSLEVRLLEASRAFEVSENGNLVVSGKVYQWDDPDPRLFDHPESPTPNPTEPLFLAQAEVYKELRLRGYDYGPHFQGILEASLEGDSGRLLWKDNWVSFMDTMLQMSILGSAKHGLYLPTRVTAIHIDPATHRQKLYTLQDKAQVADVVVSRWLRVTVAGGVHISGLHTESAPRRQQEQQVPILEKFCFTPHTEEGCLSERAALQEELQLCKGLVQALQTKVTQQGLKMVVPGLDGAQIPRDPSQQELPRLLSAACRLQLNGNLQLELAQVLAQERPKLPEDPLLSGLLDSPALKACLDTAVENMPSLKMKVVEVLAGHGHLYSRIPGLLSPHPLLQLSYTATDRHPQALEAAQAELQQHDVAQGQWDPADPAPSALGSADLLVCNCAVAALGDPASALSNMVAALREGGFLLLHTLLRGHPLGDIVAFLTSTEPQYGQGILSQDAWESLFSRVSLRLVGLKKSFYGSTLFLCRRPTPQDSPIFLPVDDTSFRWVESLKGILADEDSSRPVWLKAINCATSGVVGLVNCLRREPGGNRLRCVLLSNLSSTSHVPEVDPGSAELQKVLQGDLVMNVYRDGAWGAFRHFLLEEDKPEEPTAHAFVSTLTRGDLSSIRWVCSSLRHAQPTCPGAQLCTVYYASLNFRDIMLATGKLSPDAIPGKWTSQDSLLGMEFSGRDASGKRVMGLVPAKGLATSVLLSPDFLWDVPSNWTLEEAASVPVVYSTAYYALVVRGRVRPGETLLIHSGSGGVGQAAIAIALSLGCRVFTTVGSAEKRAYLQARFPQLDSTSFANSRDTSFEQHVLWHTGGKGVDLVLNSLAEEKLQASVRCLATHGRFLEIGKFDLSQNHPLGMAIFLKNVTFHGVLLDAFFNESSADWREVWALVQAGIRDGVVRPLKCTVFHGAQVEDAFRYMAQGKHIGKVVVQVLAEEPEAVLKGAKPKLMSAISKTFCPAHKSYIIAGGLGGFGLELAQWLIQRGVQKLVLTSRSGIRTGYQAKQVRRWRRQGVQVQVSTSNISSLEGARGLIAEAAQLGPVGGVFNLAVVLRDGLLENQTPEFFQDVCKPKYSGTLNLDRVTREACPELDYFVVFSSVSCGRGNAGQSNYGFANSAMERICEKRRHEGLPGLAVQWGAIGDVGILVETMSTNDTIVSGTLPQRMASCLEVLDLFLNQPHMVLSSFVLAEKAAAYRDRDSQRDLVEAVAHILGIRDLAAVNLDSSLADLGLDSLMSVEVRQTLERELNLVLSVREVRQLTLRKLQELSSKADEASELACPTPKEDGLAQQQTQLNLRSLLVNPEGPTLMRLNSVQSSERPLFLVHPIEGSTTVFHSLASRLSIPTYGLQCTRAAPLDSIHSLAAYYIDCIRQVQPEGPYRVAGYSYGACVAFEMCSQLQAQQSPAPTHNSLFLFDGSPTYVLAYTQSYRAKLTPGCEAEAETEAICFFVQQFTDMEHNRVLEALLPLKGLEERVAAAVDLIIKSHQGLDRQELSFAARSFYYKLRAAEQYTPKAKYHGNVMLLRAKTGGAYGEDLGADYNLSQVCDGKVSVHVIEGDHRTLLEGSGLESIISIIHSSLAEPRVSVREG

[24] = target: T5, Mannose-6-phosphate isomerase (Homo sapiens, UniProt P34949); assay: human PMI inhibitors, high substrate, primary screen, biochemical, fluorescence intensity, high mannose 6-phosphate (AID 1220)
T5 sequence (P34949 whole entry): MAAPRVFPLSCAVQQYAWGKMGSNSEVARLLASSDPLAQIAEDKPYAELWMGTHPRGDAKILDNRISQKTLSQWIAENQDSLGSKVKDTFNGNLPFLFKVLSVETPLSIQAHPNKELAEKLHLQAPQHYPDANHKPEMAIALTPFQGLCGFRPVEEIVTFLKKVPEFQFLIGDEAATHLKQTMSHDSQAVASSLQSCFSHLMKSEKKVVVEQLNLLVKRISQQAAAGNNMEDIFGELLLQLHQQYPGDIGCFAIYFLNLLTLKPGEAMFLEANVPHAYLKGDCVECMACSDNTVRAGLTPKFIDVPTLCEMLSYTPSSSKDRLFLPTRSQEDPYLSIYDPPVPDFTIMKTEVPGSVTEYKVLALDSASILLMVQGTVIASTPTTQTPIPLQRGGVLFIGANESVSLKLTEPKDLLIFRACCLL

[25] = Fluorescence-based cell-based high throughput dose response assay for inhibitors of the interaction of nucleotide-binding oligomerization domain containing 2 (NOD2) and the receptor-interacting serine-threonine kinase 2 (RIPK2).; format: functional; conditions: Homo sapiens
[26] = target: Paired box protein Pax-8 (Homo sapiens, UniProt Q06710); assay: inhibitors of PAX8-driven TPO luciferase reporter, dose response, RMG-I cells, cherry-pick (AID 687027); format: functional, cell-based;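 further: luciferase reporter driven by Pax8 target thyroperoxidase promoter measured by SteadyGlo luminescence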
[27] = target: T6, DNA repair protein RAD52 homolog (Homo sapiens, UniProt P43351); format: functional, biochemical
T6 sequence (P43351 whole entry): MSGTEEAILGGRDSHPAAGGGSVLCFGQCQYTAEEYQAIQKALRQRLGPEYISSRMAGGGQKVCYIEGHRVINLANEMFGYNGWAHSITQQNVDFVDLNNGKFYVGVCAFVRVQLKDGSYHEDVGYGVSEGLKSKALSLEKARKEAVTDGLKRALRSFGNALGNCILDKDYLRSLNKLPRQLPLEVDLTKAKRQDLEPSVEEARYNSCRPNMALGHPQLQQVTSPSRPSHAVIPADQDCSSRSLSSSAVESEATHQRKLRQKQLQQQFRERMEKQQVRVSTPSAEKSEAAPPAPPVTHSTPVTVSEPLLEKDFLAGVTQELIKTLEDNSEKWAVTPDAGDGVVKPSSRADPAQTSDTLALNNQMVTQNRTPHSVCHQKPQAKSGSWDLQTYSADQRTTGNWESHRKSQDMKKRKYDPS

[28] = intracellular Trypanosoma cruzi inhibitors in host cells – cell-based, plate reader, cherry-pick samples, set 3, dose response (AID 651818); format: functional;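 further: compounds incubated with infected cells for about four days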

T1 sequence (P63165 whole entry): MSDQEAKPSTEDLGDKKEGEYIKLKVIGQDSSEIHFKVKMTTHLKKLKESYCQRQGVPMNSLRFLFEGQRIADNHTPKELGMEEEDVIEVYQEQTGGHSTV

COc1ccc(C(=O)Nc2ccccc2C(=O)NC(Cc2ccc(O)cc2)C(=O)NNC(=O)c2ccc(C)cc2)cc1 (centres undefined)
IC50 [1]: > 66.6 µM (inactive) | IC50 [2]: 2.32 µM (active)

CN1CCN(c2ccc(C(=O)c3ccc(Br)cc3)cc2[N+](=O)[O-])CC1
EC50 [3]: > 150 µM (not active) | EC50 [4]: > 150 µM (not active) | EC50 [5]: > 150 µM (not active) | EC50 [6]: > 150 µM (not active)

O=C1C=CC(=O)N1c1ccc(Sc2ccc([N+](=O)[O-])cc2)cc1
EC50 [3]: 7.87 µM (active) | EC50 [4]: 21 µM (active) | EC50 [5]: > 75 µM (inconclusive) | EC50 [6]: 24.7 µM (active)

O=C/C=C/c1c(-c2ccccc2)cc2oc3ccccc3cc1-2
AC50 [7]: 10.4 µM (active) | IC50 [8]: 37.1 µM (active) | EC50 [9]: > 260 µM (inactive) | CC50 [10]: > 40 µM (active)

Cc1nc2c(Cl)cccc2c(O)c1CN1CCCCCC1
EC50 [11]: < 100 nM (active) | EC50 [12]: > 60 µM (not active) | EC50 [13]: 46 nM (active)

COC(=O)c1cnc(Oc2ccc(NC(=O)NC(=O)c3c(F)cccc3Cl)cc2)cc1C(F)(F)F
EC50 [14]: 49 µM (active) | EC50 [3]: 1.08 µM (active) | EC50 [15]: 1.95 µM (active) | EC50 [4]: 36.1 µM (inconclusive) | EC50 [5]: 19.9 µM (active) | EC50 [6]: 3.69 µM (inconclusive) | EC50 [16]: > 150 µM (not active) | IC50 [17]: > 80 µM (inactive)

CC1CC(C)CN(CCOCCSc2ccccc2)C1 (centres undefined)
EC50 [11]: < 100 nM (active) | EC50 [12]: > 60 µM (inconclusive) | EC50 [13]: 90 nM (active)

NS(=O)(=O)c1ccc(CCNC(=O)COC(=O)c2ccc([N+](=O)[O-])o2)cc1
IC50 [18]: 6.46 µM (active) | IC50 [19]: 9.2 µM (active)

Cc1cc(NC(=O)c2ccco2)ncc1NC(=O)Cc1ccccc1
EC50 [20]: > 91.2 µM (inactive) | EC50 [21]: > 91.2 µM (inactive)

CC(=O)c1ccc(OC(=O)Cc2cccc3ccccc23)cc1
AC50 [22]: 10.4 µM (active)

Cc1cccc(-n2c(SCC(N)=O)nnc2-c2ccco2)c1
AC50 [22]: > 30 µM (inactive)

COc1ccc(NC(=O)CC2C(=O)N(C)C(=S)N2Cc2cccs2)cc1 (centres undefined)
IC50 [23]: 15.8 µM (active)

COc1cc(C(=O)NNC(=O)C2CCC2)cc(OC)c1OC
AC50 [22]: 29.9 µM (active)

Cc1cc(CNC(=O)Cc2c(F)cccc2Cl)nn1C
AC50 [22]: > 30 µM (inactive)

CN(C)/C=N/c1c(Br)cc(Br)c2nonc12
IC50 [24]: > 50 µM (not active) | IC50 [18]: 21.3 µM (active) | IC50 [19]: 10.2 µM (active)

CCN(CC)CCNC(=O)C(Cl)=C1C(Cl)=C(Cl)C(Cl)=C1Cl
EC50 [20]: > 91.2 µM (inactive) | EC50 [21]: > 91.2 µM (inactive)

O=c1ccc2ccccc2c2ccccc12
IC50 [25]: 6.6 µM (active) | AC50 [26]: 6.07 µM (active)

COc1ccc2sc3cccc(NCCN(C)C)c3c(=O)c2c1
EC50 [20]: > 10.1 µM (inactive) | EC50 [21]: > 91.2 µM (inactive) | AC50 [27]: 683 nM (active)

C[C@H](CO)N1C[C@H](C)[C@H](CN(C)Cc2ccc(C(=O)Nc3ccccc3N)cc2)Oc2c(NS(=O)(=O)c3ccccc3)cccc2C1=O
AC50 [28]: 2.19 µM (active)

C[C@H](CO)N1C[C@H](C)[C@@H](CN(C)CC2CCCCC2)Oc2c(NC(=O)Nc3ccc(C(F)(F)F)cc3)cccc2C1=O
AC50 [28]: 3.48 µM (active)

C[C@H](CO)N1C[C@H](C)[C@H](CN(C)Cc2ccc(-c3ccccc3)cc2)Oc2ccc(NC(=O)Nc3ccc(C(F)(F)F)cc3)cc2CC1=O
AC50 [28]: 2.21 µM (active)

C[C@@H]1CN([C@@H](C)CO)C(=O)Cc2cc(NC(=O)Nc3ccccc3)ccc2O[C@@H]1CN(C)Cc1ccc(Cl)c(Cl)c1
AC50 [28]: 3.92 µM (active)

O=C(N/N=C/c1ccc([N+](=O)[O-])o1)c1cn(-c2ccccc2)nc1-c1ccc(Cl)cc1
EC50 [11]: < 100 nM (active) | EC50 [12]: > 30 µM (not active) | EC50 [13]: 28 nM (active)
